From PMC5817083, “Oligopeptide Targeting Sortase A as Potential Anti-infective Therapy for Staphylococcus aureus” (Frontiers in Microbiology, 2018)
Entries after “also recorded” stand apart in the source; their conditions may differ. Marks after values point to notes of the source that are not given here.

Experiments:
S. aureus USA 300 = experiment: Growth curve experiment (OD 600 nm); assay type: cell-based, Staphylococcus aureus; settings: USA 300 in TSB, oligopeptide 3.125–25 μM
Experimental: (§1) The broth microdilution method was used to determine the minimum inhibitory concentration (MIC) of the oligopeptide against the MRSA strain USA 300 according to the NCCLS guideline M31-A2. For the growth curve experiment, an overnight bacterial culture was inoculated in fresh TSB (1:100) with the indicated concentrations of the oligopeptide, and the optical density (OD) at 600 nm was measured for each sample at 1-h intervals.

[1] = tested on: S. aureus-induced mastitis; experiment: Mouse mastitis model of S. aureus infection; assay type: in vivo, BALB/c mice; settings: for protection against S. aureus-induced mastitis: mouse model
Experimental: BALB/c mice (from the Experimental Animal Center of Jilin University) were obtained and housed under specific pathogen-free conditions. All animal studies were approved by and conducted in accordance with the guidelines of the Animal Welfare and Research Ethics Committee of Jilin University. An overnight bacterial culture was inoculated in fresh TSB broth (1:100, OD600 nm ≈ 0.2) and incubated until the OD600 nm reached 0.8. Cells were harvested by centrifugation at 3,000 × g for 10 min, washed three times with PBS, and resuspended in PBS to a concentration of 1 × 10^9 CFU/mL for the mastitis infection experiment.
For establishment of a mastitis model of infection, lactating BALB/c mice, 10–12 weeks of age and weighing 30–32 g, were anesthetized using sodium pentobarbital and infected by injecting the canal glands with 50 μL of staphylococcal suspension per breast. The infected mice were administered 50 mg/kg of the oligopeptide subcutaneously at the time of infection and then at 12-h intervals. The control mice received an equal volume of PBS at the same time points. To evaluate the pathological correlates of mastitis, mammary gland tissues isolated from sacrificed mice at 48 h post-infection were fixed in 4% paraformaldehyde, stained with hematoxylin and eosin, and visualized by light microscopy. Furthermore, additional mammary gland tissues from the mice sacrificed at 48 h post-infection were homogenized in PBS containing 2% Triton X-100, after which they were appropriately diluted and inoculated onto TSB agar plates for assessment of the bacterial burden. The levels of the inflammatory cytokines IL-1β, IL-6, and TNF-α in the supernatants were measured using ELISA kits.

[2] = tested on: surface protein A display on S. aureus; experiment: Immunofluorescence assay of surface protein A; assay type: cell-based, Staphylococcus aureus; settings: S. aureus cultured with oligopeptide 37°C 2.5 h, confocal microscopy
Experimental: Detection of surface protein A by immunofluorescence analysis was performed as described previously ([Chen et al., 2014]). Briefly, S. aureus were cultured in TSB with or without the oligopeptide at 37°C for 2.5 h, pelleted by centrifugation (3,000 × g, 10 min), washed three times with PBS, blocked with 2% BSA for 1 h at 37°C, stained with fluorescein isothiocyanate (FITC)-labeled goat anti-rabbit IgG for 2 h at 37°C, and observed under a laser scanning confocal microscope (Olympus, Tokyo, Japan).

SrtAWT = biological target: T1, SrtAWT (Staphylococcus aureus, UniProt Q2FV99); experiment: Fluorescence spectroscopy quenching binding constant, SrtAWT
T1 construct: GST (cleaved yes); made in house; host or cells: Escherichia coli BL21 (DE3)
From the text: (§2) In this study, the fluorescence quenching method was used to measure the binding constants (KA) of ligands to proteins. A 280-nm excitation wavelength with 5-nm band pass and a 345-nm emission wavelength with 10-nm band pass were used for the measurements. Details of the measurement procedures have been described previously ([Bandyopadhyay et al., 2002]; [Jurasekova et al., 2009]).

SrtAN114A [3] = biological target: T2, SrtAN114A (Staphylococcus aureus, UniProt Q2FV99, N114A); experiment: Fluorescence spectroscopy quenching binding constant, SrtAN114A
T2 construct: GST (cleaved yes); made in house; host or cells: Escherichia coli BL21 (DE3)
From the text: as §2

SrtAC184A [4] = biological target: T3, SrtAC184A (Staphylococcus aureus, UniProt Q2FV99, C184A); experiment: Fluorescence spectroscopy quenching binding constant, SrtAC184A
T3 construct: GST (cleaved yes); made in house; host or cells: Escherichia coli BL21 (DE3)
From the text: as §2

MRSA strain USA 300 = experiment: Broth microdilution MIC; assay type: cell-based, Staphylococcus aureus; settings: for anti-S. aureus (bacteriostatic) activity: at concentrations that inhibit SrtA activity
Experimental: as §1

SrtAR197A [5] = biological target: T4, SrtAR197A (Staphylococcus aureus, UniProt Q2FV99, R197A); experiment: Fluorescence spectroscopy quenching binding constant, SrtAR197A
T4 construct: GST (cleaved yes); made in house; host or cells: Escherichia coli BL21 (DE3)
From the text: as §2

SrtAC184A [6] = biological target: T3, SrtAC184A; experiment: SrtA activity inhibition assay, mutant SrtAC184A; assay type: biochemical; settings: Figure 5C
Experimental: (§3) The procedures followed for expression and purification of the mutant proteins (SrtAN114A, SrtAC184A, and SrtAR197A) were identical to those followed for the wild-type protein (SrtAΔN59).
(§4) Site-directed mutagenesis for SrtAN114A, SrtAC184A, and SrtAR197A was conducted using a recombinant vector encoding SrtAΔN59 with a QuickChange Site-Directed Mutagenesis Kit (Stratagene, La Jolla, CA, United States). The primer pairs for these three mutations were as follows: N114A forward, 5′-[…]-3′; N114A reverse, 5′-[…]-3′; C184A forward, 5′-[…]-3′; C184A reverse, 5′-[…]-3′; R197A forward, 5′-[…]-3′; and R197A reverse, 5′-[…]-3′.
(§5) The inhibitory effect of the oligopeptide against SrtA and its mutants activity was determined as previously described in 96-well black plates (PerkinElmer, Boston, MA, United States) ([Wang et al., 2015c]). Briefly, 100 μL of purified SrtA ([…]) was preincubated with 100 μL of increasing concentrations of the oligopeptide (3.125–25 μM) in reaction buffer at 37°C for 20 min. The model fluorescent peptide substrate Dabcyl-[…]-Edans (GL Biochem, Shanghai, China) (final concentration of 10 μM) was added to the reaction system, followed by incubation at 37°C for 1 h. Fluorescence intensity was measured at […] wavelengths of 350 and 520 nm, respectively. The experiments were repeated three times independently for each sample.

[7] = tested on: S. aureus USA 300 adherence to bovine fibronectin; experiment: Fibronectin-binding assay; assay type: cell-based, Staphylococcus aureus; settings: USA 300 treated with oligopeptide, crystal violet OD570 nm
Experimental: Ninety-six-well flat-bottom polystyrene plates were coated with 100 μL of 2 μg/mL fibronectin in PBS (fibronectin from bovine plasma; Sigma–Aldrich, St. Louis, MO, United States) per well and incubated at 4°C overnight. Each well was washed three times with PBS and blocked with 5% BSA in PBS at 37°C for 2 h. An overnight bacterial culture was inoculated in fresh TSB (1:100, OD600 nm ≈ 0.2) with the indicated concentrations of the oligopeptide and incubated until the OD600 nm reached 0.5. Then, the cells were centrifuged at 5000 × g for 10 min and resuspended in PBS to an OD600 nm of 1.0. One hundred microliters of bacterial suspension were added to each fibronectin-coated plate well as described above, and the plates were incubated at 37°C for 2 h. After removal of the cell suspension, 25% (v/v) formaldehyde was added to fix S. aureus. Then, the bacteria attached to fibronectin were stained with 100 μL of 0.4% crystal violet dye for 20 min at 37°C after being washed once with PBS. Following removal of the supernatant, adherence was quantified by measuring the OD570 nm for each well. USA 300 without the oligopeptide was used as a positive control, and PBS was used as a negative control.

SrtAN114A [8] = biological target: T2, SrtAN114A; experiment: SrtA activity inhibition assay, mutant SrtAN114A; assay type: biochemical; settings: Figure 5C
Experimental: as §3, §4, §5

SrtAR197A [9] = biological target: T4, SrtAR197A; experiment: SrtA activity inhibition assay, mutant SrtAR197A; assay type: biochemical; settings: Figure 5C
Experimental: as §3, §4, §5

[10] = tested on: S. aureus invasion into J774 cells; experiment: Invasion assay in J774 cells; assay type: cell-based, Staphylococcus aureus; settings: 25 μM oligopeptide, infection 1 h, CFU of lysed cells
Experimental: J774 cells were adjusted to 4 × 10^5 per glass slide in 24-well plates in Dulbecco’s […] essential medium (DMEM) supplemented with 10% fetal bovine serum (FBS) and cultured in an incubator at 5% CO2 and 37°C overnight. An overnight bacterial culture was inoculated in fresh TSB (1:100, OD600 nm ≈ 0.2) with the indicated concentrations of the oligopeptide and incubated until the OD600 nm reached 1.0. Then, the bacteria were resuspended in DMEM containing 10% FBS at a concentration of 1 × 10^8 CFU/mL, and 1 mL of the resuspension was added to each well for infection at 37°C for 1 h. Invasion was terminated by incubation with 300 μg/mL gentamicin for 30 min. After three washes with PBS, coverslips were placed in 0.2% Triton X-100 with vigorous vortexing, and the diluted lysates were plated onto TSB agar plates to enumerate the number of bacteria associated with each sample.

SrtA (SrtAΔN59) = biological target: T5, SrtA (SrtAΔN59) (Staphylococcus aureus, UniProt Q2FV99); experiment: SrtA activity inhibition assay (fluorescent substrate Dabcyl-[…]-Edans); assay type: biochemical; settings: purified SrtA preincubated with oligopeptide 3.125–25 μM, 37°C 20 min; substrate 10 μM, 1 h
T5 construct: GST (cleaved yes); made in house; host or cells: Escherichia coli BL21 (DE3)
Experimental: An Escherichia coli BL21 (DE3) strain harboring a recombinant vector encoding SrtA∆N59 was used, as described previously ([Wang et al., 2015c]). Cells were cultured overnight at 16°C with 1 mM isopropyl-β-D-thiogalactopyranoside (IPTG, Invitrogen, Carlsbad, CA, United States) in TSB containing ampicillin to induce SrtA expression until the OD600 reached 0.6 ∼ 0.8. Then, the cells were harvested by centrifugation at 5,500 × g for 10 min, resuspended in reaction buffer (50 mM Tris-HCl, 5 mM CaCl2, and 150 mM NaCl, pH 7.5) and lysed by sonication. […] The bound GST-tagged proteins were incubated with Precision Protease at 4°C overnight prior to elution with reaction buffer. Purified SrtA proteins were concentrated to […] via centrifugal filtration (Millipore, Bedford, MA, United States) and subsequently analyzed by SDS-PAGE.
The inhibitory effect of the oligopeptide against SrtA and its mutants activity was determined as previously described in 96-well black plates (PerkinElmer, Boston, MA, United States) ([Wang et al., 2015c]). Briefly, 100 μL of purified SrtA ([…]) was preincubated with 100 μL of increasing concentrations of the oligopeptide (3.125–25 μM) in reaction buffer at 37°C for 20 min. […] Fluorescence intensity was measured at […] wavelengths of 350 and 520 nm, respectively. […]

## LPRDA
S. aureus USA 300
  growth of S. aureus: not visibly affected
[1]; lactating BALB/c mice, 50 mg/kg at infection then 12-h intervals, 48 h post-infection, vs PBS, listed as oligopeptide, 50 mg/kg
  inflammatory responses and pathological changes of mammary gland tissues: effectively alleviated; also recorded: Significant alleviation; also recorded: remarkably alleviated
[1]; lactating BALB/c mice, 50 mg/kg, 48 h post-infection, ELISA
  levels of cytokines IL-1β, IL-6 and TNF-α in mammary gland tissues: significantly reduced
[1]; lactating BALB/c mice, 50 mg/kg, 48 h post-infection, vs PBS-treated control
  bacterial burden in mammary gland tissues: significant decrease
[1]
  protection against S. aureus-induced mastitis: conferred effective protection
[1]; listed as oligopeptide
  protection against S. aureus-induced mastitis: provided protection
[2]
  display (anchoring) of surface protein A, binding of FITC-conjugated IgG: significantly hindered the binding of FITC-conjugated IgG; also recorded: decreased
SrtAWT
  binding constant KA: 6.6 ± 1.3 (1 × 10^4) L⋅mol^-1
SrtAN114A [3]
  binding constant KA: 4.2 ± 1.1 (1 × 10^4) L⋅mol^-1
SrtAC184A [4]
  binding constant KA: 5.1 ± 1.2 (1 × 10^4) L⋅mol^-1
MRSA strain USA 300; MRSA USA 300, broth microdilution
  MIC: greater than 200 μM
MRSA strain USA 300
  anti-S. aureus (bacteriostatic) activity: without anti-S. aureus activity
MRSA strain USA 300; listed as oligopeptide
  anti-S. aureus (bacteriostatic) activity: no anti-Staphylococcus aureus activity; also recorded: no bacteriostatic activity
SrtAR197A [5]
  binding constant KA: 5.0 ± 1.4 (1 × 10^4) L⋅mol^-1
SrtAC184A [6]
  sensitivity of SrtAC184A to oligopeptide-induced inhibition compared to wild-type SrtA: significantly decreased
[7]
  adherence to fibronectin: decreased adherence
SrtAN114A [8]
  sensitivity of SrtAN114A to oligopeptide-induced inhibition compared to wild-type SrtA: significantly decreased
SrtAR197A [9]
  sensitivity of SrtAR197A to oligopeptide-induced inhibition compared to wild-type SrtA: significantly decreased
[10]
  invasion of S. aureus into J774 cells: significant anti-invasive activity

## LPRDA (PEG2000-LPRDA-NH2)
SrtA (SrtAΔN59)
  IC50: 10.6 µM
